Assay results from US20250109140A1, “5-[5-(PIPERIDIN-4-YL)THIENO[3,2-C]PYRAZOL-2-YL]INDAZOLE DERIVATIVES AND RELATED COMPOUNDS AS MODULATORS FOR SPLICING NUCLEIC ACIDS AND FOR THE TREATMENT OF PROLIFERATIVE DISEASES” (REMIX THERAPUTICS INC., priority 2022, published 2025).
Where two headings read alike, the source gives them in different places.

What was measured:
Assay type in all cases: cell-based
HTT mRNA = assay: Splicing RT-qPCR assay, HTT canonical (CJ) and alternative (AJ) junction mRNA; conditions: Homo sapiens; for EC50: AC50 = 50% response in AJ mRNA increase
Experimental: (§1) Compounds described herein were used to modulate RNA transcript abundance in cells. The expression of a target mRNA was measured by detecting the formation of an exon-exon junction in the canonical transcript (CJ). A compound mediated exon-inclusion event was detected by observing an increase in formation of a new junction with an alternative exon (AJ). Real-time qPCR assays were used to detect these splicing switches and interrogate the potency of various compounds towards different target genes. A high-throughput real time quantitative PCR (RT-qPCR) assay was developed to measure these two isoforms of the mRNA (CJ and AJ) for exemplary genes, such as HTT, SMN2, and MYB, together with a control housekeeping gene, GAPDH or GUSB or PPIA, used for normalization. Briefly, the A673 or K562 cell line was treated with various compounds described herein (e.g., compounds of Formula (I)). After treatment, the levels of the HTT, MYB, or SMN2 mRNA targets were determined from each sample of cell lysate by cDNA synthesis followed by qPCR.
(§2) The A673 cell line was cultured in DMEM with 10% FBS. Cells were diluted with full growth media and plated in a 96-well plate (15,000 cells in 100 ul media per well). The plate was incubated at 37° C. with 5% CO2 for 24 hours to allow cells to adhere. An 11-point 3-fold serial dilution of the compounds was made in DMSO then diluted in media in an intermediate plate. Compounds were transferred from the intermediate plate to the cell plate with the top dose at a final concentration of 10 uM in the well. Final DMSO concentration was kept at or below 0.25%. The cell plate was returned to the incubator at 37° C. with 5% CO2 for an additional 24 hours.
(§3) The K562 cell line was cultured in IMDM with 10% FBS. For K562, cells were diluted with full growth media and plated in either a 96-well plate (50,000 cells in 50 uL media per well) or a 384-well plate (8,000-40,000 cells in 45 uL media per well). An 11-point 3-fold serial dilution of the compounds were made in DMSO then diluted in media in an intermediate plate. Compound was transferred from the intermediate plate to the cell plate with the top dose at a final concentration of 10 uM in the well. Final DMSO concentration was kept at or below 0.25%. Final volume was 100 uL for 96-well plate and 50 uL for 384-well plate. The cell plate was then placed in an incubator at 37° C. with 5% CO2 for 24 hours.
(§4) The cells were then gently washed with 50 uL-100 uL cold PBS before proceeding to addition of lysis buffer. 30 uL-50 uL of room temperature lysis buffer with DNAse I (and optionally RNAsin) was added to each well. Cells were shaken/mixed thoroughly at room temperature for 5-10 minutes for lysis to take place and then 3 uL-5 uL of room temperature stop solution was added and wells were shaken/mixed again. After 2-5 minutes, the cell lysate plate was transferred to ice for RT-qPCR reaction setup. The lysates could also be frozen at-80° C. for later use.
(§5) In some cases, a direct lysis buffer was used. An appropriate volume of 3× lysis buffer (10 mM Tris, 150 mM NaCl, 1.5%-2.5% Igepal and 0.1-1 U/uL RNAsin, pH 7.4) was directly added to either K562 or A673 cells in media and mixed by pipetting 3 times. The plates were then incubated at room temperature with shaking/rocking for 20-50 minutes to allow for lysis to take place. After this time, the cell lysate plate was transferred to ice to set up for the RT-qPCR reactions. The lysates could also be frozen at −80° C. for later use.
(§6) To set up 10 uL RT-qPCR reactions, cell lysates were transferred to 384-well qPCR plates containing the master mix according to the table below. The plates were sealed, gently vortexed, and spun down before the run. The volumes were adjusted accordingly in some instances where the reaction was carried in 20 μL. The table below summarizes the components of the RT-qPCR reactions:
(§7) The RT-qPCR reaction was performed using a QuantStudio (ThermoFisher) under the following fast cycling conditions. […]

MYB mRNA = assay: Splicing RT-qPCR assay, MYB canonical (CJ) and alternative (AJ) junction mRNA; conditions: Homo sapiens; for EC50: AC50 = 50% response in AJ mRNA increase
Experimental: as §1, §2, §3, §4, §5, §6, §7

SMN2 mRNA = assay: Splicing RT-qPCR gene panel, SMN2 canonical junction (CJ) mRNA; conditions: Homo sapiens; Table 8; larger gene panel, decrease in CJ mRNA levels
Experimental: as §1, §2, §3, §4, §5, §6, §7

Target C mRNA = assay: Splicing RT-qPCR gene panel, Target C canonical junction (CJ) mRNA; conditions: Homo sapiens; Table 8; larger gene panel, decrease in CJ mRNA levels
Experimental: as §1, §2, §3, §4, §5, §6, §7

[1] = Table 7, RT-qPCR, A673 or K562 cells, 24 hours treatment
[2] = Table 7, IC50 = 50% response in CJ mRNA decrease, RT-qPCR, A673 or K562 cells, 24 hours treatment, read-out: HTT CJ
[3] = Table 8, larger gene panel, decrease in CJ mRNA levels, read-out: HTT CJ IC50
[4] = Table 7, IC50 = 50% response in CJ mRNA decrease, RT-qPCR, A673 or K562 cells, 24 hours treatment, read-out: MYB CJ
[5] = Table 8, larger gene panel, decrease in CJ mRNA levels, read-out: MYB CJ IC50

Row | EC50 (HTT mRNA; [1]) [µM] | IC50 (HTT mRNA; [2]) [µM] | IC50 (HTT mRNA; [3]) [µM] | EC50 (MYB mRNA; [1]) [µM] | IC50 (MYB mRNA; [4]) [µM] | IC50 (MYB mRNA; [5]) [µM] | IC50 (SMN2 mRNA) [µM] | IC50 (Target C mRNA) [µM] | Compound
1 | 0.1 to 1 | 0.1 to 1 | 0.1 to 1 | 0.1 to 1 | 0.1 to 1 | 0.1 to 1 | 0.1 to 1 | 0.1 to 1 | Cc1cn2nc(-c3nc4sc(C5CCNCC5)cc4s3)cc2c(C)n1 [Compound 133, 4-(2-[4,6-dimethylpyrazolo[1,5-a]pyrazin-2-yl]thieno[2,3-d][1,3]thiazol-5-yl)piperidine]
2 | < 0.1 | 0.1 to 1 | < 0.1 | 0.1 to 1 | 0.1 to 1 | 0.1 to 1 | < 0.1 | 0.1 to 1 | Cn1cc2cc(-c3nc4sc(N5CCNCC5)cc4s3)cc(F)c2n1 [Compound 134, 7-fluoro-2-methyl-5-[5-(piperazin-1-yl)thieno[2,3-d][1,3]thiazol-2-yl]indazole]
3 | > 10 | > 10 | > 10 | > 10 | > 10 | > 10 | > 10 | > 10 | Cn1cc2cc(-c3nc4sc(N5CCC56CCNCC6)cc4s3)cc(F)c2n1 [Compound 201, 1-[2-(7-fluoro-2-methylindazol-5-yl)thieno[2,3-d][1,3]thiazol-5-yl]-1,7-diazaspiro[3.5]nonane]
4 | < 0.1 | < 0.1 | < 0.1 | 1 to 10 | 0.1 to 1 | 1 to 10 | < 0.1 | 0.1 to 1 | CN1CCC(c2cc3sc(-c4cc(F)c5nn(C)cc5c4)nc3s2)CC1 [Compound 151, 7-fluoro-2-methyl-5-[5-(1-methylpiperidin-4-yl)thieno[2,3-d][1,3]thiazol-2-yl]indazole]
5 | < 0.1 | < 0.1 | < 0.1 | < 0.1 | < 0.1 | < 0.1 | < 0.1 | < 0.1 | Cc1cn2nc(-c3nc4sc(C5CCNCC5)cc4s3)cc(C)c2n1 [Compound 112, 4-(2-[2,8-dimethylimidazo[1,2-b]pyridazin-6-yl]thieno[2,3-d][1,3]thiazol-5-yl)piperidine]
6 | < 0.1 | < 0.1 | < 0.1 | < 0.1 | < 0.1 | < 0.1 | < 0.1 | < 0.1 | Cc1cn2cc(-c3nc4sc(C5CCNCC5)cc4s3)cc(Cl)c2n1 [Compound 139]
7 | 1 to 10 | 1 to 10 | 1 to 10 | 1 to 10 | 1 to 10 | 1 to 10 | < 0.1 | > 10 | Cn1cc2cc(-c3nc4sc(N5CCC6(CCN6)C5)cc4s3)cc(F)c2n1 (stereo not drawn) [Compound 233, 5-(5-{1,6-diazaspiro[3.4]octan-6-yl}thieno[2,3-d][1,3]thiazol-2-yl)-7-fluoro-2-methylindazole]
8 | 0.1 to 1 | 0.1 to 1 | 0.1 to 1 | 0.1 to 1 | 0.1 to 1 | 0.1 to 1 | 0.1 to 1 | 0.1 to 1 | Cc1cc(N2Cc3sc(C4CCNCC4)cc3C2=O)cc2cn(C)nc12 [Compound 1122]
9 | 0.1 to 1 | 0.1 to 1 | 0.1 to 1 | 1 to 10 | 0.1 to 1 | 0.1 to 1 | < 0.1 | 0.1 to 1 | Cc1cc(-c2cc3cn([C@@H]4CCNC[C@@H]4F)nc3s2)cc2cn(C)nc12 (single isomer, unassigned) [Compound 244]
10 | 1 to 10 | – | 1 to 10 | > 10 | > 10 | > 10 | – | > 10 | Cn1cc2cc(-n3cc4sc(C5CCNCC5)cc4n3)ccc2n1 [Compound 100, 2-methyl-5-[5-(piperidin-4-yl)thieno[3,2-c]pyrazol-2-yl]indazole]
